Laboratory results from the NIST ThermoML archive (doi:10.1016/j.jct.2004.07.024).

Experiment: xn = mol fraction of the nth substance listed
Settings: 101.33 kPa, Liquid

C=Cc1ccccc1 [styrene] + C[S+](C)[O-]
Settings | mass density [kg/m3]
293.15 K, x1 = 0.062 | 1081.91
293.15 K, x1 = 0.1289 | 1064.06
293.15 K, x1 = 0.2169 | 1042.53
293.15 K, x1 = 0.2956 | 1024.85
293.15 K, x1 = 0.3596 | 1011.37
293.15 K, x1 = 0.4103 | 1001.24
293.15 K, x1 = 0.4596 | 991.74
293.15 K, x1 = 0.5023 | 983.85
293.15 K, x1 = 0.5689 | 972.01
293.15 K, x1 = 0.626 | 962.31
293.15 K, x1 = 0.7025 | 949.86
293.15 K, x1 = 0.7865 | 936.88
293.15 K, x1 = 0.8595 | 926.02
293.15 K, x1 = 0.9312 | 915.7
303.15 K, x1 = 0.0852 | 1066.12
303.15 K, x1 = 0.1495 | 1049.28
303.15 K, x1 = 0.2015 | 1036.5
303.15 K, x1 = 0.2695 | 1020.82
303.15 K, x1 = 0.3351 | 1006.61
303.15 K, x1 = 0.4055 | 992.33
303.15 K, x1 = 0.4824 | 977.63
303.15 K, x1 = 0.5588 | 963.89
303.15 K, x1 = 0.6196 | 953.53
303.15 K, x1 = 0.6726 | 944.85
303.15 K, x1 = 0.7369 | 934.68
303.15 K, x1 = 0.8069 | 924.05
303.15 K, x1 = 0.8756 | 913.99
303.15 K, x1 = 0.9458 | 904.01
313.15 K, x1 = 0.0665 | 1060.82
313.15 K, x1 = 0.1856 | 1029.88
313.15 K, x1 = 0.2581 | 1012.95
313.15 K, x1 = 0.3296 | 997.38
313.15 K, x1 = 0.3895 | 985.13
313.15 K, x1 = 0.4469 | 973.98
313.15 K, x1 = 0.5132 | 961.75
313.15 K, x1 = 0.5958 | 947.37
313.15 K, x1 = 0.6553 | 937.53
313.15 K, x1 = 0.7125 | 928.47
313.15 K, x1 = 0.7665 | 920.19
313.15 K, x1 = 0.8269 | 911.23
313.15 K, x1 = 0.8801 | 903.57
313.15 K, x1 = 0.9485 | 893.98
323.15 K, x1 = 0.0653 | 1050.77
323.15 K, x1 = 0.1856 | 1019.46
323.15 K, x1 = 0.2513 | 1004.06
323.15 K, x1 = 0.3257 | 987.81
323.15 K, x1 = 0.3969 | 973.33
323.15 K, x1 = 0.4582 | 961.55
323.15 K, x1 = 0.5296 | 948.61
323.15 K, x1 = 0.5701 | 941.56
323.15 K, x1 = 0.6352 | 930.72
323.15 K, x1 = 0.6925 | 921.57
323.15 K, x1 = 0.7468 | 913.21
323.15 K, x1 = 0.8169 | 902.83
323.15 K, x1 = 0.8825 | 893.48
323.15 K, x1 = 0.9555 | 883.37
333.15 K, x1 = 0.0626 | 1041.08
333.15 K, x1 = 0.1745 | 1011.71
333.15 K, x1 = 0.2469 | 994.63
333.15 K, x1 = 0.2963 | 983.69
333.15 K, x1 = 0.3458 | 973.27
333.15 K, x1 = 0.3899 | 964.37
333.15 K, x1 = 0.4525 | 952.34
333.15 K, x1 = 0.5252 | 939.14
333.15 K, x1 = 0.6053 | 925.5
333.15 K, x1 = 0.6852 | 912.68
333.15 K, x1 = 0.7562 | 901.86
333.15 K, x1 = 0.8362 | 890.23
333.15 K, x1 = 0.8826 | 883.72
333.15 K, x1 = 0.9332 | 876.75
343.15 K, x1 = 0.0866 | 1023.99
343.15 K, x1 = 0.1762 | 1000.88
343.15 K, x1 = 0.2459 | 984.45
343.15 K, x1 = 0.2856 | 975.61
343.15 K, x1 = 0.3595 | 960.11
343.15 K, x1 = 0.4041 | 951.25
343.15 K, x1 = 0.4896 | 935.26
343.15 K, x1 = 0.5695 | 921.33
343.15 K, x1 = 0.6254 | 912.1
343.15 K, x1 = 0.6925 | 901.53
343.15 K, x1 = 0.7569 | 891.83
343.15 K, x1 = 0.8042 | 884.96
343.15 K, x1 = 0.8685 | 875.91
343.15 K, x1 = 0.9344 | 866.93
353.15 K, x1 = 0.0659 | 1019.29
353.15 K, x1 = 0.1289 | 1002.33
353.15 K, x1 = 0.1865 | 987.92
353.15 K, x1 = 0.2415 | 975.04
353.15 K, x1 = 0.3063 | 960.8
353.15 K, x1 = 0.3895 | 943.8
353.15 K, x1 = 0.4589 | 930.59
353.15 K, x1 = 0.5362 | 916.84
353.15 K, x1 = 0.6089 | 904.68
353.15 K, x1 = 0.6812 | 893.25
353.15 K, x1 = 0.7462 | 883.47
353.15 K, x1 = 0.8126 | 873.91
353.15 K, x1 = 0.8865 | 863.68
353.15 K, x1 = 0.9522 | 854.91

C[S+](C)[O-] [dimethyl sulfoxide] + Cc1ccccc1
Settings | mass density [kg/m3]
293.15 K, x2 = 0.0689 | 1077.87
293.15 K, x2 = 0.1505 | 1053.27
293.15 K, x2 = 0.2269 | 1031.56
293.15 K, x2 = 0.3036 | 1010.99
293.15 K, x2 = 0.3758 | 992.64
293.15 K, x2 = 0.4568 | 973.24
293.15 K, x2 = 0.5177 | 959.33
293.15 K, x2 = 0.5769 | 946.41
293.15 K, x2 = 0.6342 | 934.37
293.15 K, x2 = 0.6885 | 923.31
293.15 K, x2 = 0.7512 | 911.04
293.15 K, x2 = 0.8181 | 898.38
293.15 K, x2 = 0.8856 | 886.05
293.15 K, x2 = 0.9553 | 873.71
303.15 K, x2 = 0.0652 | 1069.85
303.15 K, x2 = 0.1295 | 1050.38
303.15 K, x2 = 0.1806 | 1035.51
303.15 K, x2 = 0.2563 | 1014.57
303.15 K, x2 = 0.3098 | 1000.5
303.15 K, x2 = 0.3845 | 981.74
303.15 K, x2 = 0.4456 | 967.18
303.15 K, x2 = 0.5169 | 950.98
303.15 K, x2 = 0.5813 | 937.04
303.15 K, x2 = 0.6645 | 919.88
303.15 K, x2 = 0.7499 | 903.18
303.15 K, x2 = 0.8114 | 891.64
303.15 K, x2 = 0.8802 | 879.15
303.15 K, x2 = 0.9532 | 866.39
313.15 K, x2 = 0.0661 | 1059.41
313.15 K, x2 = 0.1202 | 1043.16
313.15 K, x2 = 0.1891 | 1023.36
313.15 K, x2 = 0.2403 | 1009.32
313.15 K, x2 = 0.2945 | 995.06
313.15 K, x2 = 0.3615 | 978.24
313.15 K, x2 = 0.4369 | 960.28
313.15 K, x2 = 0.5156 | 942.59
313.15 K, x2 = 0.5813 | 928.56
313.15 K, x2 = 0.6558 | 913.41
313.15 K, x2 = 0.7267 | 899.63
313.15 K, x2 = 0.7956 | 886.78
313.15 K, x2 = 0.8821 | 871.32
313.15 K, x2 = 0.9448 | 860.52
323.15 K, x2 = 0.0884 | 1042.41
323.15 K, x2 = 0.1236 | 1032.08
323.15 K, x2 = 0.1869 | 1014.1
323.15 K, x2 = 0.2536 | 996.08
323.15 K, x2 = 0.3285 | 976.94
323.15 K, x2 = 0.3996 | 959.75
323.15 K, x2 = 0.4501 | 948.11
323.15 K, x2 = 0.4969 | 937.7
323.15 K, x2 = 0.5563 | 925
323.15 K, x2 = 0.616 | 912.74
323.15 K, x2 = 0.6725 | 901.61
323.15 K, x2 = 0.7562 | 885.79
323.15 K, x2 = 0.8532 | 868.42
323.15 K, x2 = 0.9458 | 852.63
333.15 K, x2 = 0.0598 | 1040.93
333.15 K, x2 = 0.1436 | 1016.4
333.15 K, x2 = 0.2258 | 993.84
333.15 K, x2 = 0.2931 | 976.44
333.15 K, x2 = 0.3652 | 958.78
333.15 K, x2 = 0.4112 | 948.06
333.15 K, x2 = 0.4859 | 931.36
333.15 K, x2 = 0.5301 | 921.94
333.15 K, x2 = 0.5965 | 908.31
333.15 K, x2 = 0.6789 | 892.24
333.15 K, x2 = 0.7215 | 884.23
333.15 K, x2 = 0.7899 | 871.86
333.15 K, x2 = 0.8512 | 861.15
333.15 K, x2 = 0.9503 | 844.53
343.15 K, x2 = 0.0599 | 1030.68
343.15 K, x2 = 0.1102 | 1015.93
343.15 K, x2 = 0.1798 | 996.46
343.15 K, x2 = 0.2549 | 976.61
343.15 K, x2 = 0.3169 | 961.13
343.15 K, x2 = 0.3858 | 944.75
343.15 K, x2 = 0.4405 | 932.38
343.15 K, x2 = 0.5258 | 914.08
343.15 K, x2 = 0.5936 | 900.34
343.15 K, x2 = 0.6678 | 886.01
343.15 K, x2 = 0.7166 | 876.96
343.15 K, x2 = 0.7925 | 863.42
343.15 K, x2 = 0.8792 | 848.65
343.15 K, x2 = 0.9552 | 836.24
353.15 K, x2 = 0.0801 | 1014.55
353.15 K, x2 = 0.1526 | 994.06
353.15 K, x2 = 0.2215 | 975.63
353.15 K, x2 = 0.2869 | 959.04
353.15 K, x2 = 0.3568 | 942.26
353.15 K, x2 = 0.4205 | 927.79
353.15 K, x2 = 0.4956 | 911.6
353.15 K, x2 = 0.5723 | 895.96
353.15 K, x2 = 0.6321 | 884.4
353.15 K, x2 = 0.7058 | 870.71
353.15 K, x2 = 0.768 | 859.69
353.15 K, x2 = 0.8363 | 848.04
353.15 K, x2 = 0.8913 | 838.96
353.15 K, x2 = 0.9524 | 829.17
